In patent publication US8633322B2, “Alkynyl derivatives useful as DPP-1 inhibitors” (Janssen Pharmaceutica NV, priority 2009, dated 2014):

biological target: T1, recombinant human DPP-1 (Cathepsin C) (Homo sapiens, UniProt P53634); test: DPP-1 Inhibition Assay (In Vitro), fluorogenic substrate GR-AMC; assay type: biochemical; conditions: room temperature; 0.15 nM DPP-1, 10 uM GR-AMC, pH 7.0; average where tested multiple times
T1 construct: made in house
Procedure: Test compounds were assessed for DPP-1 (Cathepsin C) inhibitory activity using a fluorogenic substrate, GR-AMC (Glycine-Arginine-amino-4-methylcoumarin, Bachem, 1-1215). The amount of amino-methylcoumarin released is proportional to the DPP-1 activity, and the reaction is monitored kinetically with a Molecular Devices plate reader using black 96-well plates.
All compounds were tested under room temperature conditions. The assay buffer consisted of 50 mM HEPES, pH 7.0, 100 mM NaCl, 2 mM glutathione (GSH), and 0.002% TWEEN 20. GSH and TWEEN 20 were added to the buffer fresh daily. Just prior to use, an in-house preparation of recombinant human DPP-1 (240 μM stock, MW 49.6 kD) was diluted 600-fold in assay buffer containing fresh 2 mM dithiothreitol (DTT) to activate the enzyme, then diluted into assay buffer (without DTT) 133-fold for a DPP-1 working solution of 3 nM. Test compounds were diluted in DMSO for 20× their final assay concentrations.
Additions to a 96-well black Costar 3915 plates were as follows: 90 μL of 11 μM GR-AMC, 5 μL test compound (followed by mixing), and 5 μL 3 nM DPP1 to start the reaction. Fluorescent reactions were monitored kinetically at 360 nm excitation, 440 nm emission on a Molecular Devices Spectramax XPS reader. The Softmax Pro software of the reader determined the initial velocity of the selected data (the first 3-5 minutes of the reaction), and the best linear regression fit of the initial kinetic data. Final assay conditions were 0.15 nM DPP-1, 10 uM GR-AMC, 50 mM HEPES, pH 7.0, 100 mM NaCl, 2 mM GSH, 0.002% TWEEN 20, 1 uM DTT, 5.0% DMSO. Initial velocity rates were plotted vs. test compound concentration by use of a four-parameter logistics equation (nonlinear regression, sigmoidal dose-response (variable slope), with fixed Hill (1.0) using GraphPad Prism® software for determination of DPP-1 IC50. Within-run assay coefficient of variation (CV) was generally <10%; between-run CV <20%.
Representative compounds of the present invention were tested according to the procedure as described above, with results as listed in Table 2, below. Additionally, Table 2 below lists the measured mass for said representative compounds of the present invention, more particularly the mass of the MH^+ ion.

T1 sequence (P53634 25-463): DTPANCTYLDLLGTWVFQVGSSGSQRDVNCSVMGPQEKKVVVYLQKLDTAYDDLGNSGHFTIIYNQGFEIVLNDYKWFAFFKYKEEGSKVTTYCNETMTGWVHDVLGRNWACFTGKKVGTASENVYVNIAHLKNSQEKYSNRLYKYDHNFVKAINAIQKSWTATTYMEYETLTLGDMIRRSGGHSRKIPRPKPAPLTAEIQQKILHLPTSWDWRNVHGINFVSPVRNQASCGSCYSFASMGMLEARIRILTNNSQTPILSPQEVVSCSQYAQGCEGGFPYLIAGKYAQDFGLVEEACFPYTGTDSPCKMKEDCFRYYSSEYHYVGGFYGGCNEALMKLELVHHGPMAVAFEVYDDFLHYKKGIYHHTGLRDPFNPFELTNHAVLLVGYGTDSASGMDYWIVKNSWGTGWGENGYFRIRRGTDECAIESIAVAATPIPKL

SMILES | IC50
N[C@@H](Cc1ccccc1)C(=O)NCCCC#Cc1cccc(OC2CCNCC2)c1 [Compound 1] | 15.3 µM
C#CC[C@H](N)C(=O)NCCCC#Cc1cccc(OC2CCNCC2)c1 [Compound 3, (S)-2-amino-N-(5-(3-(piperidin-4-yloxy)phenyl)pent-4-ynyl)pent-4-ynamide] | 0.39 µM
C#CC[C@H](N)C(=O)NCCC#Cc1cccc(OC2CCNCC2)c1 [Compound 6, (S)-2-amino-N-(4-(3-(piperidin-4-yloxy)phenyl)but-3-ynyl)pent-4-ynamide] | 2.43 µM
C#CC[C@H](N)C(=O)NCCCC#Cc1cc(OC)cc(OC2CCNCC2)c1 [Compound 7, (S)-2-amino-N-(5-(3-methoxy-5-(piperidin-4-yloxy)phenyl)pent-4-ynyl)pent-4-ynamide] | 1.6 µM
C=CCC[C@H](N)C(=O)NCCCC#Cc1cccc(OC2CCNCC2)c1 [Compound 8] | 1.64 µM
CC[C@H](N)C(=O)NCCCC#Cc1cccc(OC2CCNCC2)c1 [Compound 9] | 1.37 µM
N[C@@H](CC1CC1)C(=O)NCCCC#Cc1cccc(OC2CCNCC2)c1 [Compound 11] | 15.3 µM
CCCC[C@H](N)C(=O)NCCCC#Cc1cccc(OC2CCNCC2)c1 [Compound 12] | 5.92 µM
NCCC[C@H](N)C(=O)NCCCC#Cc1cccc(OC2CCNCC2)c1 [Compound 13] | 98 µM
N[C@@H](CCO)C(=O)NCCCC#Cc1cccc(OC2CCNCC2)c1 [Compound 15, (S)-2-amino-4-hydroxy-N-(5-(3-(piperidin-4-yloxy)phenyl)pent-4-ynyl)butanamide] | 2.5 µM
CC(C)[C@H](N)C(=O)NCCCC#Cc1cccc(OC2CCNCC2)c1 [Compound 16, (S)-2-amino-3-methyl-N-(5-(3-(piperidin-4-yloxy)phenyl)pent-4-ynyl)butanamide] | 12.8 µM
CCC[C@H](N)C(=O)NCCCC#Cc1cccc(OC2CCNCC2)c1 [Compound 18, (S)-2-amino-N-(5-(3-(piperidin-4-yloxy)phenyl)pent-4-ynyl)pentanamide] | 1.7 µM
N[C@@H](Cn1cccn1)C(=O)NCCCC#Cc1cccc(OC2CCNCC2)c1 [Compound 19, (S)-2-amino-N-(5-(3-(piperidin-4-yloxy)phenyl)pent-4-ynyl)-3-(1H-pyrazol-1-yl)propanamide] | 9.1 µM
N[C@@H](Cc1c[nH]cn1)C(=O)NCCCC#Cc1cccc(OC2CCNCC2)c1 [Compound 20] | 0.52 µM
C#CC[C@H](N)C(=O)NCCCC#Cc1cccc(-c2ccccc2)c1 [Compound 24] | 0.4 µM
CC(C)C[C@H](N)C(=O)NCCCC#Cc1cccc(OC2CCNCC2)c1 [Compound 31] | 30 µM
N[C@@H](Cc1cccnc1)C(=O)NCCCC#Cc1cccc(OC2CCNCC2)c1 [Compound 33] | 15 µM
CC[C@H](N)C(=O)NCCCC#Cc1cccc(OC)c1 [Compound 35] | 5.8 µM
CC[C@H](N)C(=O)NCCCC#Cc1ccc(F)c(F)c1 [Compound 39] | 0.35 µM
CC[C@H](N)C(=O)NCCCC#Cc1ccc(OC)cc1 [Compound 40] | 0.214 µM
CC[C@H](N)C(=O)NCCCC#Cc1cccc2ccccc12 [Compound 41] | 2.53 µM

SMILES | IC50
CC[C@H](N)C(=O)NCCCC#Cc1c(C)cccc1C [Compound 49] | 3.28 µM
CC[C@H](N)C(=O)NCCCC#Cc1ccc2c(c1)OCO2 [Compound 51] | 15 µM
CC[C@H](N)C(=O)NCCCC#Cc1c(C)cc(C)cc1C [Compound 55] | 9.5 µM
CC[C@H](N)C(=O)NCCCC#Cc1ccc(S(C)(=O)=O)cc1 [Compound 56, (S)-2-amino-N-(5-(4-(methylsulfonyl)phenyl)pent-4-ynyl)butanamide] | 18 µM
CC[C@H](N)C(=O)NCCCC#Cc1ccc(OC)c(OC)c1 [Compound 57] | 17 µM
CC[C@H](N)C(=O)NCCCC#Cc1ccc(C(F)(F)F)cc1 [Compound 58] | 11 µM
CC[C@H](N)C(=O)NCCCC#Cc1cc(OC)cc(OC)c1 [Compound 59] | 12 µM
CC[C@H](N)C(=O)NCCCC#Cc1ccc2sccc2c1 [Compound 60] | 6 µM
CC[C@H](N)C(=O)NCCCC#Cc1ccccc1-c1ccccc1 [Compound 61] | 6.8 µM
N[C@@H](Cc1cccs1)C(=O)NCCCC#Cc1cccc(OC2CCNCC2)c1 [Compound 63, (S)-2-amino-N-(5-(3-(piperidin-4-yloxy)phenyl)pent-4-ynyl)-3-(thiophen-2-yl)propanamide] | 0.15 µM
CC[C@@H](N)C(=O)NCCCC#Cc1cccc(OC2CCNCC2)c1 [Compound 71] | > 100 µM
CC[C@H](N)C(=O)NCCCC#Cc1ccc2ccccc2c1 [Compound 73] | 15 µM
CC[C@H](N)C(=O)NCCCC#Cc1ccccc1C(F)(F)F [Compound 74] | 26 µM
CC[C@H](N)C(=O)NCCCC#Cc1ccccc1C1CCCCC1 [Compound 75] | 39 µM
CC[C@H](N)C(=O)NCCCC#Cc1c(C)c(C)cc(C)c1C [Compound 76] | 14 µM
CC[C@H](N)C(=O)NCCCC#Cc1cc(C)ccc1C [Compound 77] | 33 µM
CC[C@H](N)C(=O)NCCCC#Cc1cccc(O[C@@H]2CCCNC2)c1 [Compound 78, (S)-2-amino-N-(5-(3-((R)-piperidin-3-yloxy)phenyl)pent-4-ynyl)butanamide] | 3.9 µM
C#CC[C@H](N)C(=O)NCCCC#Cc1cccc(O[C@@H]2CCCNC2)c1 [Compound 79, (S)-2-amino-N-(5-(3-((R)-piperidin-3-yloxy)phenyl)pent-4-ynyl)pent-4-ynamide] | 2.9 µM
CC[C@H](N)C(=O)NCCCC#Cc1cccc(O[C@H]2CCCNC2)c1 [Compound 80, (S)-2-amino-N-(5-(3-((S)-piperidin-3-yloxy)phenyl)pent-4-ynyl)butanamide] | 2.3 µM
CC[C@H](N)C(=O)NCCCC#Cc1ccc(-c2ccccc2)cc1 [Compound 81] | 5.6 µM
CC[C@H](N)C(=O)NCCCC#Cc1cccc2cnccc12 [Compound 82] | 17 µM

SMILES | IC50
CC[C@H](N)C(=O)NCCCC#Cc1ccc(C)c2ccccc12 [Compound 83] | 8.5 µM
CC[C@H](N)C(=O)NCCCC#Cc1ccc(F)c2ccccc12 [Compound 84] | 7.2 µM
C#CC[C@H](N)C(=O)NCCCC#Cc1cccc(O[C@H]2CCCNC2)c1 [Compound 85, (S)-2-amino-N-(5-(3-((S)-piperidin-3-yloxy)phenyl)pent-4-ynyl)pent-4-ynamide] | 1.2 µM
CC[C@H](N)C(=O)NCCCC#Cc1ccc(OCc2ccccc2)cc1 [Compound 86] | 2.4 µM
CC[C@H](N)C(=O)NCCCC#Cc1c(OC)ccc2ccccc12 [Compound 87] | 13 µM
CC[C@H](N)C(=O)NCCCC#Cc1cncc2ccccc12 [Compound 89] | 7.9 µM
N[C@@H](Cc1ccccn1)C(=O)NCCCC#Cc1cccc(OC2CCNCC2)c1 [Compound 90] | 12 µM
CC[C@@H](N)C(=O)NCCCC#Cc1cccc(OC)c1 [Compound 92] | 17 µM
CC[C@H](N)C(=O)NCCCC#Cc1ccc(C(C)C)cc1 [Compound 95] | 1.2 µM
CC[C@H](N)C(=O)NCCCC#Cc1ccc2c(c1)OCCO2 [Compound 97] | 5 µM
CC[C@H](N)C(=O)NCCCC#Cc1ccccc1 [Compound 98] | 7.9 µM
CC[C@H](N)C(=O)NCCCC#Cc1ccccc1OC [Compound 99] | 12 µM
CC[C@H](N)C(=O)NCCCC#Cc1ccc(NC(C)=O)cc1 [Compound 100] | 6.3 µM
CC[C@H](N)C(=O)NCCCC#Cc1ccc2c(c1)Cc1ccccc1-2 [Compound 101] | 1.7 µM
CC[C@H](N)C(=O)NCCCC#Cc1cccc(F)c1F [Compound 102] | 6.1 µM
CC[C@H](N)C(=O)NCCCC#Cc1ccccc1NC(C)=O [Compound 103] | 5.4 µM
CC[C@H](N)C(=O)NCCCC#Cc1ccccc1O [Compound 104] | 8 µM
CC[C@H](N)C(=O)NCCCC#Cc1c(O)ccc2ccccc12 [Compound 105] | > 10 µM
CC[C@H](N)C(=O)NCCCC#Cc1c(F)ccc2ccccc12 [Compound 106] | 6 µM
